Experimental data as given in patent US12396949B2, “Technology for improving properties of lipid nanoparticles using lipids in which cis-unsaturated bonds are substituted with a silicon atom” (The Regents of the University of California, priority 2022, dated 2025).
Where “and” joins values, the source holds several entries; their conditions need not be identical. Equal entries are not always repeated.

Assays:
[1] = Average size of liposomes made from cationic silyl lipids (Tables 1A, 1B); format: physicochemical; conditions: Table 1A; liposome formulations of the cationic silyl lipid only in Milli Q purified water
From the text: (§1) For colloidal dispersions, zeta potential is a useful measurement of the difference in electrokinetic potential between the dispersion medium and the stationary layer of fluid attached to the dispersed particle. The magnitude of the zeta potential indicates the degree of electrostatic repulsion between adjacent, similarly charged particles in a dispersion. A high zeta potential is an indicator of stability (resistance to aggregation). Both zeta potential and size can be determined using a zeta Potential Analyzer. Clogston J D et al., Methods Mol Biol. 2011; 697:63-70.
(§2) FIGS. 5A to 5C and TABLE 1A provide an illustration of such empirical determination: the effect of the length of the lipid tail, the end group, and the positioning of the silyl group. In this illustration, other properties of the lipid structure and liposome composition were kept constant. The liposome formulations just contained the cationic silyl lipids indicated, and Milli Q™ purified water.
(§3) FIGS. 7A to 7C and TABLE 1B provide another illustration of how structure of the silyl lipid can affect properties of nanoparticles.
(§4) Structural features such as tail length, positioning of the silicon group (n1, n2), and branching (as in 8,Si, (8)3-DOTMA) can influence liposome properties.

[2] = Average zeta potential of liposomes made from cationic silyl lipids (Tables 1A, 1B); format: physicochemical; conditions: Table 1A; liposome formulations of the cationic silyl lipid only in Milli Q purified water
From the text: as §1, §2, §3, §4

| SMILES | Avg. Size [1] [nm] | Avg. zeta Potential [2] |
| --- | --- | --- |
| C[N+](C)(C)CC(COC(=O)CCCC[Si](C)(C)c1ccccc1)OC(=O)CCCC[Si](C)(C)c1ccccc1 (centres unmarked) [QP5SiPh] | 80 | 62 mV |
| CCCCCCCCC[Si](C)(C)CCCCCCC(=O)OCC(C[N+](C)(C)C)OC(=O)CCCCCC[Si](C)(C)CCCCCCCCC (centres unmarked) [QP7Si9] | 59 | 74 mV |
| CCCC[Si](C)(C)CCCCCCCC(=O)OCC(C[N+](C)(C)C)OC(=O)CCCCCCC[Si](C)(C)CCCC (centres unmarked) [QP8Si4] | 24 | 33 mV and 44 mV |
| CCCCCC[Si](C)(C)CCCCCCCC(=O)OCC(C[N+](C)(C)C)OC(=O)CCCCCCC[Si](C)(C)CCCCCC (centres unmarked) [QP8Si6] | 38 | 62 mV |
| CCCCCCCC[Si](C)(C)CCCCCCCC(=O)OCC(C[N+](C)(C)C)OC(=O)CCCCCCC[Si](C)(C)CCCCCCCC (centres unmarked) [QP8Si8] | 38 | 67 mV |

Continued, values first:

| Avg. Size [1] [nm] | Avg. zeta Potential [2] | SMILES |
| --- | --- | --- |
| 29 | 57 mV and 71 mV | C[N+](C)(C)CC(COC(=O)CCCCCCC[Si](C)(C)C1CCCCC1)OC(=O)CCCCCCC[Si](C)(C)C1CCCCC1 (centres unmarked) [QP8SiCy] |
| 21 | 59 mV and 73 mV | C[N+](C)(C)CC(COC(=O)CCCCCCC[Si](C)(C)c1ccccc1)OC(=O)CCCCCCC[Si](C)(C)c1ccccc1 (centres unmarked) [QP8SiPh] |
